What was measured:
[1] = Body mass, heart rate and blood pressure in randomized, double-blind, placebo-controlled, cross-over supplementation study; assay type: in vivo, human; conditions: GLU condition, mean ± SD
Experimental: A randomized, double-blind, placebo-controlled, cross-over study design was conducted on healthy males and females. Participants were instructed to report to a laboratory after observing an overnight (8 to 10-hour) fast while maintaining adequate hydration. Participants were asked to abstain from exercise and avoid alcohol and caffeine consumption for 12 hours prior to each study visit. All participants first completed an initial eligibility visit during which a comprehensive medical history, consent document, and body mass index (BMI) assessment were completed. Results from the BMI assessment was used to finalize eligibility. Once deemed eligible, participants were provided with supplies to begin the study protocol.
The remainder of the study consisted of two identical patterns of testing with the exception of what supplementation protocol was followed. FIG. 1 provides a flowchart of the experimental design. Prior to each visit, food and physical activity logs were completed encompassing four days prior to the scheduled laboratory visit. The four days consisted of two weekend days and two weekdays. Each participant reported to the laboratory for a baseline measurement of height, weight, heart rate, and blood pressure. During this visit, participants completed the Bristol Stool Chart and Gastrointestinal Symptom Rating Scale (GSRS) to assess bowel habits and potential gastrointestinal symptoms. Participants were given instructions on how to collect a stool sample and were instructed to do so within 24 hours of each planned study visit. At the completion of this study visit, participants were provided with their first assigned supplement (either PLA [placebo] or GLU [glucosamine]) and instructed to begin supplementation 21 days prior to their second visit. Participants were instructed to collect their second stool sample on the day of their final supplementation dose. On the morning of their second study visit, participants reported to the laboratory after following identical pre-study instructions as previous visits (i.e., fasting, abstention from caffeine and exercise). Study participants again completed assessments for height, weight, heart rate, blood pressure, and questionnaires regarding their bowel habits and gastrointestinal symptoms while also providing their second stool sample and turning in completed food and activity logs. A washout period lasting a minimum of 14 days and a maximum of 21 days separated each phase of the crossover as shown in FIG. 1.
In a double-blind manner, a glucosamine supplement (GLU) or a maltodextrin placebo (PLA) was distributed in identical opaque capsules to all participants. On a daily basis, participants were instructed to ingest three capsules, each containing 1,000 mg of glucosamine hydrochloride (GlucosaGreen®, TSI Group Ltd. MT, USA) or a placebo (maltodextrin) identical in appearance for a total of 21 days. Each visit at the beginning of the supplementation regimen (Visits 1 and 4, respectively; See FIG. 1) occurred on or before the first day of supplementation while the final day of supplementation occurred the day before each participant's follow-up visit for that study period (Visits 2 and 4, respectively). Participants were instructed to ingest the supplement 15-30 minutes before breakfast with eight fluid ounces of cold water. In the case of a missed dose, participants were instructed to consume the missed dose as soon as possible with a meal. […] The dose of maltodextrin used in the following examples was two to five-fold lower, respectively, than these investigations.
Height and weight were measured for every participant without shoes and in minimal clothing using a standardized wall-mounted stadiometer (Tanita, model #HR-200, Tokyo, Japan) and a self-calibrating digital scale (Tanita, model #BWB-627A Class III, Tokyo, Japan). Prior to heart rate and blood pressure measurements, participants rested in a seated position for five minutes. […]

Peptococcaceae = assay: Fecal microbiota analysis, differential abundance of taxa (MaAsLin); assay type: in vivo, human; conditions: after GLU intake compared to baseline (GLU (Pre)), p=0.021
Experimental: To determine significant differences between bacterial alpha diversity metrics (the measure of microbiome diversity within a single sample), a paired t-test was used between alpha diversity values of different sample groups (p<0.05). Significant differences in beta diversity (the measure of similarity or dissimilarity of multiple samples) between groups was determined using the qiime diversity beta-group-significance command in QIIME2 as well, which performs pairwise Permutational Multivariate Analysis of Variance (PERMANOVA) tests on beta diversity distance matrices (p<0.05). Differential abundance of taxa between sample groups were evaluated using Multivariate Analysis by Linear Models (MaAsLin) in R version 4.0.2 using the Maaslin2 command in the Maaslin2 R library on rarified taxonomy data generated by QIIME2 (p<0.05). […]
A fecal microbiota analysis was further conducted. […] The Qubit Fluorometer (Thermo Fisher Scientific, San Francisco, Calif.) was used to quantify PCR product concentrations prior to combining the PCR products in equal quantities for purification with the Wizard SV Gel and PCR Cleanup kit (Promega, Madison, Wis.). […] Library purity and concentration was measured on a 2100 Bioanalyzer System (Agilent Technologies, Santa Clara, Calif.). […]
Ion Torrent BAM files of raw DNA sequencing data were converted to the FASTQ format using BEDTools and then analyzed using Quantitative Insights into Microbiology (QIIME2) version 2019.10. Reads shorter than 200 bp in length were removed. […] Multiple sequence Alignment using Fast Fourier Transform (MAFFT) was used for read alignment, while gapped and unconserved alignments were filtered using the alignment mask plugin. […] Sequences of mitochondria and chloroplast origin were filtered from downstream analysis, leaving a total of 1,391,259 total high-quality reads associated with taxonomic annotations. Samples were rarified to 7,874 reads for alpha and beta diversity analysis. […]

[2] = Post 21 days, 3 x 1,000 mg/day oral

For `Cl.N[C@H]1C(O)O[C@H](CO)[C@@H](O)[C@@H]1O` (stereo partly shown) [GLU, glucosamine hydrochloride], the “Diastolic BP” value [1, 2] was 77.0 ± 9.8 mmHg, the “Heart Rate” value [1, 2] was 63.1 ± 8.1 beats/min and the “Systolic BP” value [1, 2] was 119.4 ± 10.8 mmHg. For the same molecule, the “Diastolic BP” value ([1]; Pre (baseline)) was 73.9 ± 9.3 mmHg, the “Heart Rate” value ([1]; Pre (baseline)) was 66.8 ± 7.7 beats/min and the “Systolic BP” value ([1]; Pre (baseline)) was 121.7 ± 14.2 mmHg. For the same molecule, the “Proportion of Peptococcaceae, Log2 FC” value (Peptococcaceae) was −4.52.

— patent publication US20220395522A1, “Methods of Use of Glucosamine for Increasing Nitrogen Retention” (TSI Bioproducts (Xuzhou) Co., Ltd., priority 2021, published 2022)
